Where two headings read alike, the source gives them in different places.
What was measured:
[1] = system: HAS2 (hyaluronic acid synthase 2); test: UVB-induced senescence assay: HAS2 gene expression (qPCR); assay type: cell-based, human
Description: (§1) In the second approach, we established a method for inducing senescence in these cells with 2 cycles of UVB irradiation 72h apart (Figure 2A). The use of UVA to induce senescence was discarded due to its considerably longer time requirement, being unsuitable to screen 30 compounds within a reasonable period. Cells were treated with these compounds throughout the duration of the assay and cellular senescence was monitored with two markers: accumulation of SA-β-galactosidase (SA-β-Gal) activity, and the decrease in expression of HAS2 (hyaluronic acid synthase 2), a previously reported marker of skin senescence.
(§2) Figure 2 (A) Schematic representation of the protocol for senescence induction using UVB irradiation. Cells were treated -/+ the compounds from day 1 to 7 after seeding, irradiated with UVB on days 2 and 5 and harvested for analysis on day 7. […] (C) Phase-contrast (left column) and bright field (right column) microscope images of SA-β-Gal staining showing non-irradiated cells, UVB-irradiated cells non-treated and treated with Gallic acid or Shikimic acid at the indicated concentrations. (D) Percentage of SA-β-Gal positive cells and (E) Relative HAS2 mRNA levels in non-irradiated cells, UVB-irradiated cells and UVB-irradiated cells treated with Gallic acid or Shikimic acid at the indicated concentrations. Student T-test, *p<0.05, **p<0.01, ***p<0.001.
RNA was extracted from cell pellets using the Total RNA Purification Kit (Norgen, Canada), according to the manufacturer’s protocol. Extracted RNA was quantified using a NanoDrop® ND-1000 UV-Vis Spectrophotometer (Thermo Fisher Scientific, USA) and 300 ng of RNA were retrotranscribed to cDNA using the PrimeScriptTM RT reagent kit (Takara Bio Inc., Japan). cDNA was diluted 1/10 in ultrapure water and qPCR mix was prepared by adding cDNA (12 ng), SYBR green supermix (Bio Rad, USA), forward and reverse primers (0.2μM). The primers and their respective sequences are listed in Supplementary Table 1. qPCR protocol included one step at 95° C for 30 s, 40 cycles at 95° C for 10s, and 60° C for 1min. The results were analyzed with Bio-Rad CFX Manager software. BACT was used as a housekeeping gene to normalize gene expression.
(§3) Senescence induction by UVB irradiation For the non-irradiation control conditions, HDF were […]
(§4) After 24h, culture medium was removed and well plates. After 24h, culture medium was removed replaced by fresh cell culture medium containing the and replaced with fresh cell culture medium containing compounds at different concentrations. After 24h, the compounds at different concentrations. […]
(§5) cell culture medium was removed, and cells were cells/plate in fresh cell culture medium containing the irradiated at 25 mJ/cm2 of UVB light (312 nm) in a Bio- compound in 6-well plates. After 3 days, cells were […]
(§6) amount of PBS. PBS was then removed and fresh cell fresh cell culture medium containing the compound in culture medium with the compound was added to each 6-well plates. After 2 days, cells were processed well. After 3 days, cells were irradiated again under the according to the qPCR, β-Gal staining, apoptosis, cell same conditions. After 2 days, cells were processed cycle or immunofluorescence protocols. according to the qPCR, β-Gal staining, apoptosis, cell cycle or immunofluorescence protocols.

[2] = system: H4K16ac (the target of SIRT1 and SIRT2); test: Sirtuin activity assay in HDF: H4K16ac levels (Western blot); assay type: cell-based, human; conditions: HDF treated 24h; for SIRT1,2 H4K16ac: Figure 1B; for SIRT1,2 H4K16ac: key: ↑: increase; ↓: decrease; hyphens that indicate no effect (-)
Description: (§7) Figure 1 (A) Schematic representation of the compound testing for sirtuin activity evaluation in HDF. Cells were treated with or without the compounds for 24h and harvested for analysis. […] (C) Western Blot analysis and (D) quantification of H4K16ac and H3K9ac levels in cells treated with Resveratrol or Shikimic acid at the indicated concentrations. H4K16 and H3K9 levels were normalized to H4 and H3 levels respectively. Student T-test, *p<0.05, **p<0.01, ***p<0.001.
(§8) HDFs were plated in 100x20 mm2 cell culture plates and after 24h, fresh cell culture medium containing the compounds was added. After 24h, cells were detached with cell scrapers, harvested, and processed for qPCR or western blot.
(§9) Protein levels were analyzed as previously described. Cells were directly lysed in 1x Laemmli Buffer (Bio-Rad, USA), incubated at 95° C and centrifuged. Supernatant was subjected to SDS-polyacrylamide gel electrophoresis, and successive steps were performed as described. The list of antibodies used is included in Supplementary Table 2.

[3] = system: primary human dermal fibroblasts (HDFs)
From the text: In our efforts to identify novel factors that could prevent skin cell senescence, we developed a screening process to identify new modulators of the protective role of sirtuins in UV-induced senescence. For this purpose, we established a culture of primary human dermal fibroblasts (HDFs). […] Our first step in the screening was to establish the optimal concentrations of these compounds in the case of HDFs. […] Once established, we took these parameters into account to decide the specific working range of concentrations for each compound.
Human dermal fibroblasts (HDFs) (Promocell, Germany) from 40-year old Caucasian women were used as the in vitro model for compound viability and efficacy screening. Cells were cultured in Dulbecco's modified eagle medium (DMEM) low glucose (Biowest, France) supplemented with 10% fetal bovine serum (FBS) (Capricorn Scientific, Germany) and 10 U/mL penicillin/streptomycin (Biowest, France) in a humidified incubator at 37° C and 5% CO2. For cell passage, cells at 80% confluence were trypsinized and plated at 60% confluence. Cells between passage 13 and 18 were used for the assays. For the SIRT1 in vitro assay, HEK293 cells (ATCC, USA), used to transfect and immunoprecipitate SIRT1 protein, were grown in DMEM high glucose (Thermo Fisher Scientific, USA), supplemented with 10% FBS in a humidified incubator at 37° C and 5% CO2. The following experiments were all performed in triplicate.
(§10) The protocol for senescence induction using UVB irradiation is described in the Supplementary Methods. SA-β-Gal staining, WST-1, sulforhodamine B (SRB) and trypan blue assays were performed as previously described. For the siRNA experiments, the protocol for senescence induction using UVB irradiation was the same as in the Supplementary Methods. Specific siRNA (Horizon discovery, UK) for SIRT1, SIRT2, SIRT6, BiP or scramble siRNA were incubated for 6 hours before each irradiation step.

[4] = system: H3K9ac (the target of SIRT1, SIRT2 and SIRT6); test: Sirtuin activity assay in HDF: H3K9ac levels (Western blot); assay type: cell-based, human; conditions: HDF treated 24h; for SIRT1,2,6 H3K9ac: Figure 1B; for SIRT1,2,6 H3K9ac: key: ↑: increase; ↓: decrease; hyphens that indicate no effect (-)
Description: as §7, §8, §9

[5] = system: UVB-irradiated human dermal fibroblasts (HDFs); test: UVB-induced senescence assay: SA-β-Gal staining; assay type: cell-based; conditions: for β-Gal: HDF, 2 cycles of UVB, compound day 1 to 7, Figure 2B; for β-Gal: key: ↑: increase; ↓: decrease; hyphens that indicate no effect (-)
Description: as §1, §2, §10, §3, §4, §5, §6

[6] = HDF, 2 cycles of UVB, compound day 1 to 7, Figure 2B
[7] = HDFs, WST-1 cell viability test
[8] = HDFs, WST-1 cell viability test, maximum non-cytotoxic dose

In the case of `O=C(OC[C@H]1OC(O)[C@@](O)(COC(=O)c2cc(O)c(O)c(O)c2)[C@@H]1O)c1cc(O)c(O)c(O)c1` (some centres unmarked) [Hamamelitannin], the HAS2 expression [1, 6] is reported as “-”, the “SIRT1,2 H4K16ac” value [2] is reported as “-” and the “LD50” value [3, 7] is reported as 0.247 mM. For the same compound, the “Max. non-cyt. doses” value [3, 8] was 0.1 mM, the “SIRT1,2,6 H3K9ac” value [4] was “-” and the β-Gal [5] was “-”.
`c1coc(CNc2ncnc3[nH]cnc23)c1` [Kinetin] was tested, and the HAS2 expression [1, 6] was “-”, the “SIRT1,2 H4K16ac” value [2] was “-” and the “LD50” value ([3]; female, human) was 1.835 mM. The “Max. non-cyt. doses” value ([3]; female, human) was 0.5 mM, the “effect on H3K9ac levels” value [4] was “reduced the levels of H3K9ac only” and the β-Gal [5] was “-”.
With `Cc1ncc(CO)c(CO)c1O` [Pyridoxine, reference compound] the HAS2 expression [1, 6] was “-”, the “SIRT1,2 H4K16ac” value [2] was “-” and the “LD50” value ([3]; female, human) was 16.92 mM. For the same compound, the “Max. non-cyt. doses” value ([3]; female, human) was 5 mM, the “SIRT1,2,6 H3K9ac” value [4] was “-” and the β-Gal [5] was “-”.
With `O=c1c(O)c(-c2ccc(O)c(O)c2)oc2cc(O)cc(O)c12` [Quercetin, reference compound] the “HAS2 expression” value ([1]; UVB-irradiated HDF) was “only promoted HAS2 upregulation”, the “effect on H4K16ac levels” value [2] was “induced a similar effect on both targets” and the “LD50” value [3, 7] was 0.604 mM. For the same compound, the “Max. non-cyt. doses” value ([3]; female, human) was 0.25 mM, the “effect on H3K9ac levels” value [4] was “induced a similar effect on both targets” and the β-Gal [5] was “-”.
In the case of `Oc1ccc(/C=C/c2cc(O)cc(O)c2)cc1` [Resveratrol, reference compound], the HAS2 expression [1, 6] is reported as “-”, the “effect on H4K16ac levels” value [2] is reported as “induced a similar effect on both targets” and the “LD50” value ([3]; female, human) is reported as 0.173 mM. For the same compound, the “Max. non-cyt. doses” value ([3]; female, human) was 0.05 mM, the “effect on H3K9ac levels” value [4] was “induced a similar effect on both targets” and the “SA-β-Gal accumulation/staining” value ([5]; UVB-irradiated HDF) was “increased SA-β-Gal staining”.
In the case of `NC(=S)N/N=C/c1ccccc1O` [Salicyladehyde thiosemicarbazone], the HAS2 expression [1, 6] is reported as “-”, the “SIRT1,2 H4K16ac” value [2] is reported as “-” and the “LD50” value [3, 7] is reported as 4.175 mM. The “Max. non-cyt. doses” value [3, 8] was 0.5 mM, the “SIRT1,2,6 H3K9ac” value [4] was “-” and the β-Gal [5] was “-”.
In the case of `O=C(O)c1ccccc1O` [Salicylic acid, reference compound], the HAS2 expression [1, 6] is reported as “-”, the “SIRT1,2 H4K16ac” value [2] is reported as “-” and the “Max. non-cyt. doses” value [3, 8] is reported as 1 mM. For the same compound, the “SIRT1,2,6 H3K9ac” value [4] was “-” and the β-Gal [5] was “-”.
`Oc1ccc2c(c1)OCO2` [Sesamol] was tested, and the HAS2 expression [1, 6] was “-”, the “effect on H4K16ac levels” value [2] was “induced a similar effect on both targets” and the “LD50” value [3, 7] was 4.358 mM. The “Max. non-cyt. doses” value [3, 8] was 0.5 mM, the “effect on H3K9ac levels” value [4] was “induced a similar effect on both targets” and the “prevention of UV-induced cellular senescence” value ([5]; UVB-irradiated HDF, SA-β-Gal and HAS2 markers) was “did not prevent cellular senescence”.
With `COc1cc(C(=O)O)cc(OC)c1O` [Syringic acid] the HAS2 expression [1, 6] was “-”, the “SIRT1,2 H4K16ac” value [2] was “-” and the “LD50” value ([3]; female, human) was 3.65 mM. The “Max. non-cyt. doses” value ([3]; female, human) was 1 mM, the “SIRT1,2,6 H3K9ac” value [4] was “-” and the β-Gal [5] was “-”.
With `COc1cc(C=O)ccc1O` [Vanillin] the HAS2 expression [1, 6] was “-”, the “SIRT1,2 H4K16ac” value [2] was “-” and the “LD50” value ([3]; female, human) was 5.912 mM. For the same compound, the “Max. non-cyt. doses” value ([3]; female, human) was 1 mM, the “SIRT1,2,6 H3K9ac” value [4] was “-” and the β-Gal [5] was “-”.
In the case of `C/C(=C\CNc1ncnc2[nH]cnc12)CO` [Zeatin], the HAS2 expression [1, 6] is reported as “-”, the “SIRT1,2 H4K16ac” value [2] is reported as “-” and the “LD50” value [3, 7] is reported as 2.462 mM. The “Max. non-cyt. doses” value [3, 8] was 1 mM, the “effect on H3K9ac levels” value [4] was “reduced the levels of H3K9ac only” and the β-Gal [5] was “-”.

— article PMC8148468, “Shikimic acid protects skin cells from UV-induced senescence through activation of the NAD+-dependent deacetylase SIRT1” (Aging (Albany NY), 2021)
